Reference: PubChem BioAssay (NCI)
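All cell lines were grown in 96-well plates and treated with compound for 48 hours. GI50 marks 50% less growth. TGI is the concentration that stops growth completely.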

What was measured:
Assay in all cases: growth of human tumour cells (NCI), 48 h
[1] = tested on: ACHN renal
[2] = tested on: SK-OV-3 ovarian
[3] = tested on: OVCAR-5 ovarian

Row | SMILES | TGI [1] [µM] | TGI [2] [µM] | TGI [3] [µM] | GI50 [1] [µM]
1 | COC(=O)[C@@]1(Cc2ccc(O)cc2)C[C@@H]2Cc3ccccc3N2N1 | > 100 | > 100 | > 100 | 
2 | COc1cc(CNC2=NCCC2)cc(OC)c1OC | > 100 | > 100 | > 100 | 
3 | COC(=O)c1c2c(cc3c1CC1(C3)Cc3cc4c(c(C(C)=O)c3C1)CCC4)C=CC2 (stereo not given) | > 31.6 |  | > 31.6 | 
4 | CC(C)(C)CNC(=O)NCn1cc(-c2ccccc2)nn1 | > 100 |  | > 100 | 
5 | CCOC(=O)C1=c2[nH]c3cccc4cccc(c43)n2C(=O)CC1c1ccccc1 (stereo not given) | > 100 | > 100 | > 100 | 
6 | O=C(OC[C@H]1C[C@H]2C(=O)CCC[C@H]2O1)c1ccccc1 | > 100 | > 100 | > 100 | 
7 | CCOC(=O)C(=[N+]=[N-])C(=O)CN1C(=O)C2CC(C)=C(C)CC2C1O (stereo not given) | > 100 |  | > 100 | 
8 | O=C1CCCC(=O)N1n1c(Cc2ccccc2)n[nH]c1=O | > 100 | > 100 | > 100 | 
9 | CCOC(=O)NC(C(=O)OCC)(N1CCN(c2cc3c(cc2F)c(=O)c(C(=O)O)cn3CC)CC1)C(F)(F)F (stereo not given) | > 100 | > 100 | > 100 | 
10 | O=C(COc1ccc(OCC(=O)NNC2=NC(c3cc(F)c(Cl)cc3Cl)CS2)c(Cl)c1)NNC1=NC(c2cc(F)c(Cl)cc2Cl)CS1 (stereo not given) | > 100 | > 100 | > 100 | 
11 | COC(=O)/C=C(/C(=O)OC)c1cc2ccc3c([nH]c4ccccc43)c(C)c-2c1 | > 100 | 36.9 | 13.6 | 
12 | O=C(O)CC1NC(/C(=C/c2ccccc2O)NC(=O)c2ccccc2)OC1=O (stereo not given) | > 51 | > 100 | > 100 | 
13 | CCOC(=O)/C(N=Nc1ccc(-n2c(C)nc3ccc(Br)cc3c2=O)cc1)=C(/C)O | > 100 | > 100 | > 100 | 
14 | CN(C)CC1CCC/C(=C\c2ccc(OC(=O)/C=C/c3ccccc3)cc2)C1=O (stereo not given) | 6.62 | > 50.9 | 7.24 | 
15 | COC1=CC(=O)c2c(cc(COP(=O)(OCC3OC(n4cc(F)c(=O)[nH]c4=O)CC3O)N(C)CCCCCl)n2C)C1=O (stereo not given) | > 100 | > 79.8 | 41.1 | 
16 | CN1C(=O)C(C(N)=O)C2CC1(C)Oc1ccccc12 (stereo not given) | > 100 | > 100 | > 100 | 
17 | Cc1c(/C=N/NC(=S)Nc2ccccc2)c(=O)n(-c2ccccc2)n1C | > 100 | > 100 |  | 
18 | O=c1cc(N2CCCC2)[nH]c(=O)n1-c1ccc(F)cc1 | > 100 | > 100 | > 100 | 
19 | Cc1cc(C)nc(SCC(=O)OC2CC(C)CCC2C(C)C)n1 (stereo not given) | 38.6 | > 100 | 47.9 | 
20 | O=[N+]1ON=C(c2ccccc2)C1=C1C(c2c(-c3ccccc3)no[n+]2[O-])=NON1[O-] | 27.4 | > 100 | > 100 | 
21 | COc1cccc(C2ON=C(c3ccccc3)N2C23CC4CC(CC(C4)C2)C3)c1 (stereo not given) | > 10 | > 10 | > 10 | 

Row | SMILES | TGI [1] [µM] | TGI [2] [µM] | TGI [3] [µM] | GI50 [1] [µM]
22 | C[n+]1c2ccccc2n2c3ccccc3c(NCCc3ccccn3)c(C#N)c21 | > 20.1 | 17.8 | > 21.7 | 
23 | O=C(CC(C(=O)c1cccs1)c1cccs1)c1ccccc1Cl (stereo not given) | > 100 | > 100 | > 100 | 
24 | CO/C(=C/C(=O)C(Cl)(Cl)Cl)CC/C(=C\C(=O)C(Cl)(Cl)Cl)OC | 65.2 | 87.3 | > 100 | 
25 | O=C(NNCC(F)(F)F)c1ccncc1 | > 100 | > 100 | > 100 | 
26 | COc1cc(OC)c2c(=O)c(OC)c(-c3ccc4c(c3)OCO4)oc2c1OC | > 100 | > 100 | > 100 | 
27 | C=CCc1cc(C=C(C#N)C#N)cc(OC)c1O | > 100 | > 100 | > 100 | 
28 | C[N+](C)(C)/N=C/c1ccc(O)c(O)c1 | > 100 | > 100 | > 100 | 
29 | c1cc2nnc1SCCCSc1ccc(nn1)SCCCSc1ccc(nn1)SCCCS2 | > 100 | > 100 | > 100 | 
30 | c1ccc(-c2nnc(SCc3c[nH]c4ccccc34)n2-c2ccccc2)cc1 | > 100 | > 100 | > 100 | 
31 | O=C(NNC(=S)Nc1ccc(Br)cc1)c1cc(-c2ccccc2)nc2ccccc12 | > 100 | 47.5 | 79.3 | 
32 | O=c1c(C2=NCCC2)c(-c2ccc[nH]2)[nH]n1-c1ccccc1 | > 100 | > 100 | > 100 | 
33 | CCOC(=O)C1C(c2ccc(O)c(OC)c2)c2c([nH][nH]c2=O)CC1(C)O (stereo not given) | > 100 |  | > 100 | 
34 | NC(=O)C(=CNC(=S)Nc1ccc(Cl)c(Cl)c1)C(N)=O | > 100 | > 100 | > 100 | 
35 | CC(=O)OC12c3ccccc3-c3ccccc3C1C(C(=O)O)C2(Cl)C(=O)O (stereo not given) | > 10 | > 10 | > 10 | 
36 | COC(CC1(/C=C/O[Si](C(C)C)(C(C)C)C(C)C)C(=O)N(COCC[Si](C)(C)C)c2ccccc21)OC (stereo not given) | > 100 | 51.2 | > 100 | 
37 | N#CCOc1ccc(/C=C/C(=O)c2ccc(Cl)cc2)cc1 | > 100 | 37.3 | > 100 | 
38 | COC(=O)C(C(=O)C(=O)Nc1ccccc1C#N)c1nc2ccc([N+](=O)[O-])cc2[nH]c1=O (stereo not given) | > 100 | > 100 | > 100 | 
39 | NNC1=N/C(=C\c2ccco2)C(=O)N1 | > 100 | > 100 | > 100 | 
40 | O=c1oc2ccccc2c(O)c1/C=N/C(=S)NCc1ccccc1 | > 100 | > 100 | > 100 | 
41 | CCN1C(=O)/C(=C2\SC(c3ccccc3)(c3ccccc3)c3ccccc32)SC1=S | > 100 | > 100 | > 100 | 
42 | CC(=O)Nc1ccc(-c2nc3ccccc3s2)cc1C | > 100 | > 100 |  | 

Row | SMILES | TGI [1] [µM] | TGI [2] [µM] | TGI [3] [µM] | GI50 [1] [µM]
43 | O=C(Nc1nc(C23CC4CC(CC(C4)C2)C3)cs1)c1cc2cc(Cl)ccc2oc1=O | > 100 |  | > 100 | 
44 | Nn1c(CCCCCCCCc2nnc(COc3ccccc3)n2N)nnc1COc1ccccc1 | > 100 | > 100 | > 100 | 
45 | CSc1c(C(=O)Nc2ccc(C)cc2)c(N)n(N)c(=O)c1C#N |  | > 100 | > 100 | 
46 | CCCCc1ccc(-n2sc3ncc([N+](=O)[O-])cc3c2=O)cc1 | 28 | > 100 | 40.6 | 
47 | Cc1ccc(C2N=C(N)NC3=C2CCOc2c3ccc3ccccc23)cc1 (stereo not given) | > 73.7 | > 100 | > 77.1 | 16.6
48 | CC1CCCCN1CC(=O)c1ccc2c(c1)Sc1ccccc1O2 (stereo not given) | 28.8 | 31.6 | 34.5 | 
49 | CSc1cc(Br)ccc1-n1c(C(=O)c2ccccc2)c(SC)n(-c2ccccc2)c1=O | > 100 | > 100 | > 100 | 
50 | S=C(N/N=C/c1ccccn1)Nc1ccc(Cl)cc1 | 1.66 | 10.5 | > 100 | 
51 | CCCCCCCNC(P(=O)(O)O)P(=O)(O)O | > 100 | > 100 | > 100 | 
52 | COc1cccc(CCNc2c(C#N)c3nc4ccccc4n3c3ccccc23)c1 | > 100 | > 100 | > 100 | 
53 | COc1cc(C(=O)C2C(=O)c3ccccc3C2C2(O)c3ccccc3CC2C(O)c2cc(OC)c(OC)c(OC)c2)cc(OC)c1OC (stereo not given) | > 100 | > 100 | > 100 | 
54 | N=C(N)SCc1cc(Cl)cc(Cl)c1O | 36.4 | > 100 | 40.3 | 
55 | CC(C)COC(=O)OC(=O)c1ccc(N(C)Cc2cnc3nc(N)nc(N)c3n2)cc1 | > 79.4 | > 100 | > 100 | 
56 | COC(=O)c1ccc(NCc2c(O)ccc(O)c2Br)cc1Cl | 30.6 | > 100 | 28.6 | 
57 | Cc1ccc(N=C2S/C(=C3/CCC=C3N3CCOCC3)N(c3ccc(Cl)cc3)C2=Nc2ccc(C)cc2)cc1 | > 100 |  | > 100 | 
58 | COC1(OC)N=C(N)C2(C#N)C3(C(=O)N(C(C)C)N=C3C)C12C#N (stereo not given) | > 100 | > 100 | > 100 | 
59 | O=c1c2ccccc2nc2n1C(c1ccc([N+](=O)[O-])cc1)C2(c1ccccc1)c1ccccc1 (stereo not given) | > 100 | > 100 | > 100 | 
60 | Cc1c(-c2ccccc2)c(C#N)c2nnn(C3CCCCC3)c(=O)n12 | > 100 | > 100 | > 100 | 
61 | Cc1[nH]n(C(=N)N)c(=O)c1CCO | > 100 | > 100 | > 100 | 
62 | COC(=O)C(Cc1ccccc1)NP(=O)(O)OCC1OC(n2cc(I)c(=O)[nH]c2=O)CC1O (stereo not given) | > 100 | > 100 |  | 
63 | Cc1cc(C)c2c(c1)C1=NCCN1C2(O)c1ccc(Cl)cc1 (stereo not given) | 29.6 | 28.5 | 33.1 | 
